# Measurements reported in patent US20220117964A1, “COMBINATION OF FAK INHIBITOR AND BTK INHIBITOR FOR TREATING A DISEASE” (ASCENTAGE PHARMA (SUZHU) CO., LTD., priority 2019, published 2022).
# Assays:
# KYSE-150 cells = test: Colony formation assay; type: cell-based, human; details: 1 μM Compound 5, 1 μM Ibrutinib or both, 12 days
# Experimental: (§1) Growth inhibition was detected by colony formation assay. ESCC cells were inoculated in 6-well plates at about 500 cells/well, and treated with different inhibitors or DMSO, and then replaced with fresh medium containing with different inhibitors or DMSO every 3 to 4 days. The cells were stained with crystal violet (V5265, Sigma, St Louis, Mo., USA) on day 12. After washing twice with PBS, the cells were fixed with 1% paraformaldehyde and incubated for 15 minutes at room temperature. The cells were then washed twice with PBS and stained with 0.5% crystal violet for 15 minutes at room temperature.
# (§2) (1) The experimental method was as described in the items (1), (2), (5) of Example 2. […] The changes in signaling pathway of related proteins were determined by Western blotting assay.
# YES-2 cells = test: Colony formation assay; type: cell-based; details: 0.5 μM Compound 5, 0.25 μM Ibrutinib or both, 12 days
# Experimental: as §1, §2
structure (smiles),measurement,setting,value
"Cc1cc(Nc2ncc(Cl)c(Nc3ccccc3S(=O)(=O)C(C)C)n2)c(OC(C)C)cc1C1=CCN(C2CCOCC2)CC1 [Compound 5, 5-chloro-N^2-(2-isopropoxy-5-methyl-4-(1-(tetrahydro-2H-pyran-4-yl)-1,2,3,6-tetrahydropyridin-4-yl)phenyl)-N^4-(2-(isopropylsulfonyl)phenyl)pyrimidine-2,4-diamine]",inhibitory effect on cell clone formation,KYSE-150 cells,stronger inhibitory effects
same,inhibitory effect on cell clone formation,YES-2 cells,stronger inhibitory effects
